Measurements reported in ChEMBL document CHEMBL1131665, “Rapid synthesis of RGD mimetics with isoxazoline scaffolds on solid phase: identification of alphavbeta3 antagonists lead compounds” (Bioorg Med Chem Lett, 1999).
One block for each compound: values may come before it.

Experiments:
Format in all cases: functional
Integrin alpha-V/beta-3 = Integrin alpha-V/beta-3 (Homo sapiens, UniProt P05106+P06756); experiment: Antagonistic activity against vitronectin receptor
[1] = molecular target: Integrin alpha-IIb/beta-3 (Homo sapiens, UniProt P05106+P08514); experiment: Antagonistic activity against fibrinogen receptor
Integrin alpha-IIb/beta-3, sequence (P05106 27-788 limits assumed): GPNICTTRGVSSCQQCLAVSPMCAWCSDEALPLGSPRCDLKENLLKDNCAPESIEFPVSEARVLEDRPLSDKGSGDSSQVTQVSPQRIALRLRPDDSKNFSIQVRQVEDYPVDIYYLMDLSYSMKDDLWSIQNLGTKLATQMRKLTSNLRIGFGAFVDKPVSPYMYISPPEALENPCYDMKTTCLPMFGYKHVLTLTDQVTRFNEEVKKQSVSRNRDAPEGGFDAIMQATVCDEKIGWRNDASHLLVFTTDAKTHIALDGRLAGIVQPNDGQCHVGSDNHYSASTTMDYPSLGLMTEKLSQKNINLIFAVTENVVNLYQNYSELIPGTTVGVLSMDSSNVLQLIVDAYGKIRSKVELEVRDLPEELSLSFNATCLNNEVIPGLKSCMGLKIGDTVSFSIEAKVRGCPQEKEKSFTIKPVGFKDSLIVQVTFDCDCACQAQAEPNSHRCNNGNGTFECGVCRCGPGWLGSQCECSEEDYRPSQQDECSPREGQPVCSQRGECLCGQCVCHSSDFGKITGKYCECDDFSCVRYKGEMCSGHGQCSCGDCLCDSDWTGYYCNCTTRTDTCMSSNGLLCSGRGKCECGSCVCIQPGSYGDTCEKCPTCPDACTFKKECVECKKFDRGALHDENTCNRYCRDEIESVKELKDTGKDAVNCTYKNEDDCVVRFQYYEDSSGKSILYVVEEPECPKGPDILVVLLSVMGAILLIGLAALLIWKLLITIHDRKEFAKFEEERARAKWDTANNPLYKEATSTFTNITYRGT
Integrin alpha-IIb/beta-3, sequence (P08514 32-887 limits assumed): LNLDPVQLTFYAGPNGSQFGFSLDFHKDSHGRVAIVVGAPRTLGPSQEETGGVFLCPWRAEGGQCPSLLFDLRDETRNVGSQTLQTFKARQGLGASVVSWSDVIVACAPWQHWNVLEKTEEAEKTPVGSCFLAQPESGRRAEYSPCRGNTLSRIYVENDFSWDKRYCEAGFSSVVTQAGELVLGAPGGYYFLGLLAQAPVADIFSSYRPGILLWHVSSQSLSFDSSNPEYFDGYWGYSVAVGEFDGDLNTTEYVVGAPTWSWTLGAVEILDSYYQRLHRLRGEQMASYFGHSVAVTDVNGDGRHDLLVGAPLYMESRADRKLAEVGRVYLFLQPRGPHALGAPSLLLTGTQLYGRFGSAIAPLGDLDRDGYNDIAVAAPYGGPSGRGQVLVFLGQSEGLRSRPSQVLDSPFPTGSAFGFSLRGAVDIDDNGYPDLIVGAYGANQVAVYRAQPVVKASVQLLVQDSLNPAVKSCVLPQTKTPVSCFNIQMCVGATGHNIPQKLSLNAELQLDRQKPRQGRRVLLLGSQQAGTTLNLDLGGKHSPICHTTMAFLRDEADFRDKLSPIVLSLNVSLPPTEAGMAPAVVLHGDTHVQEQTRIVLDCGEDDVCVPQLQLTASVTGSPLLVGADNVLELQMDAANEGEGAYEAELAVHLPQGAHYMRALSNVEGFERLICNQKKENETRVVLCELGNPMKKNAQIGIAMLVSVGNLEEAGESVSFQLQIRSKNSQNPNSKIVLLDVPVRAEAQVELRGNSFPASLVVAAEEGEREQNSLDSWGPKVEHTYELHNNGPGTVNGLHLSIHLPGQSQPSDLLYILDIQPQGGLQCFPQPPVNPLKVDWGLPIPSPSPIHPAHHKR
Integrin alpha-IIb/beta-3, sequence (P08514 891-1039 limits assumed): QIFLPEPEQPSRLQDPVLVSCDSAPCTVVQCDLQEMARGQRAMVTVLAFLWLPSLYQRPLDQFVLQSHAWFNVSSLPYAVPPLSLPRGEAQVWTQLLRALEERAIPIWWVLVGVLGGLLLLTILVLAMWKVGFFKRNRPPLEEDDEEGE

[2] = Antagonistic activity against Vitronectin receptor protein ( alpha v beta 3 ) by ELISA assay

Integrin alpha-V/beta-3, sequence (P05106 27-788 limits assumed): as the sequence (P05106 27-788 limits assumed) above
Integrin alpha-V/beta-3, sequence (P06756 31-889 limits assumed): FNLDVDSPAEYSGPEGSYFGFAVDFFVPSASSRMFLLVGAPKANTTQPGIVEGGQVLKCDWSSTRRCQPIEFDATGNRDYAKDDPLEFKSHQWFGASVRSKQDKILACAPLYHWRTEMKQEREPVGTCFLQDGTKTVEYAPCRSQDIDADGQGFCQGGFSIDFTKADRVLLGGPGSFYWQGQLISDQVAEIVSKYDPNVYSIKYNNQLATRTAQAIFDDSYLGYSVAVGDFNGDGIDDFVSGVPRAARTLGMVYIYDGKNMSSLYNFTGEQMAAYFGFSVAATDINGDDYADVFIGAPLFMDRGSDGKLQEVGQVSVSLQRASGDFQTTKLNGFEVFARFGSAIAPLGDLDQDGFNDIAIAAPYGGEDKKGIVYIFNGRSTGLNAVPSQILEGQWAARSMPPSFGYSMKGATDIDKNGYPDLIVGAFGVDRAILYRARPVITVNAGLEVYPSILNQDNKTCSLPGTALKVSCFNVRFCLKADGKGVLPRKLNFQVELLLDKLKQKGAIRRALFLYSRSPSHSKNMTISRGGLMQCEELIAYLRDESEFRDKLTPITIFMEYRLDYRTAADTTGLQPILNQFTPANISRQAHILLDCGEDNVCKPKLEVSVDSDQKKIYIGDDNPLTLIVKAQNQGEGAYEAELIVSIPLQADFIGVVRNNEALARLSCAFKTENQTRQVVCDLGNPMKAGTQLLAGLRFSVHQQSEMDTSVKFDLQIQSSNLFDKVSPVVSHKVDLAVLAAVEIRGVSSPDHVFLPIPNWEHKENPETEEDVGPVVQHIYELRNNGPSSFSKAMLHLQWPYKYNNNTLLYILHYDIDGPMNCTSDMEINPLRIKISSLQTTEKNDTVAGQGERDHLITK
Integrin alpha-V/beta-3, sequence (P06756 891-1048 limits assumed): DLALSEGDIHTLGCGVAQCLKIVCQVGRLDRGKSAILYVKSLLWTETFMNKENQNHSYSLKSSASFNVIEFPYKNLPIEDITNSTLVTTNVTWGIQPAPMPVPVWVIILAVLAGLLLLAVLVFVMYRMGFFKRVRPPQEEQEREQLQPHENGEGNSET

IC50 (Integrin alpha-V/beta-3): 470 nM | IC50 [1]: 1500 nM
SMILES: N=C(N)NCCCCCC1=NOC(CC(=O)NC[C@H](NC(=O)OCc2ccccc2)C(=O)O)C1 (stereo partly specified)

IC50 (Integrin alpha-V/beta-3): 23 nM
SMILES: N=C(N)NCCCCC1CC(C(=O)NC[C@H](NC(=O)OCc2ccccc2)C(=O)O)=NO1 (stereo partly specified)

IC50 (Integrin alpha-V/beta-3): 14 nM | IC50 [1]: 850 nM
SMILES: Cc1noc(C)c1S(=O)(=O)N[C@@H](CNC(=O)C1=NOC(CCCCN=C(N)N)C1)C(=O)O (stereo partly specified)

IC50 (Integrin alpha-V/beta-3): 140 nM | IC50 [1]: 53000 nM
SMILES: N=C(N)NCCCC1CC(C(=O)NC[C@H](NC(=O)OCc2ccccc2)C(=O)O)=NO1 (stereo partly specified)

IC50 (Integrin alpha-V/beta-3): 140 nM | IC50 [1]: 43000 nM
SMILES: N=C(N)NCCCCC1CC(C(=O)NC[C@H](NS(=O)(=O)c2ccc([N+](=O)[O-])cc2)C(=O)O)=NO1 (stereo partly specified)

IC50 [2]: 81 nM | IC50 [1]: 55000 nM
SMILES: N=C(N)NCCCCC1=NOC(C(=O)NC[C@H](NC(=O)OCc2ccccc2)C(=O)O)C1 (stereo partly specified)

IC50 (Integrin alpha-V/beta-3): 100 nM
SMILES: N=C(N)NCCCC1=NOC(CCC(=O)NC[C@H](NC(=O)OCc2ccccc2)C(=O)O)C1 (stereo partly specified)

IC50 (Integrin alpha-V/beta-3): 12 nM | IC50 [1]: 460 nM
SMILES: COc1ccc(S(=O)(=O)N[C@@H](CNC(=O)C2=NOC(CCCCN=C(N)N)C2)C(=O)O)cc1 (stereo partly specified)

IC50 (Integrin alpha-V/beta-3): 4 nM | IC50 [1]: 170 nM
SMILES: N=C(N)NCCCCC1CC(C(=O)NC[C@H](NS(=O)(=O)c2ccccc2Br)C(=O)O)=NO1 (stereo partly specified)

IC50 (Integrin alpha-V/beta-3): 7 nM | IC50 [1]: 7900 nM
SMILES: CN(C)c1cccc2c1ccc[n+]2S(=O)(=O)N[C@@H](CNC(=O)C1=NOC(CCCCN=C(N)N)C1)C(=O)[O-] (stereo partly specified)

IC50 (Integrin alpha-V/beta-3): 110 nM | IC50 [1]: > 100000 nM
SMILES: N=C(N)NCCCC1=NOC(C(=O)NC[C@H](NC(=O)OCc2ccccc2)C(=O)O)C1 (stereo partly specified)

IC50 (Integrin alpha-V/beta-3): 8 nM | IC50 [1]: 690 nM
SMILES: N=C(N)NCCCCC1CC(C(=O)NC[C@H](NS(=O)(=O)c2ccc(-c3ccccn3)s2)C(=O)O)=NO1 (stereo partly specified)

Further lines, the compound ahead of its results:

SMILES: N=C(N)NCCCCC1CC(C(=O)NC[C@H](NS(=O)(=O)c2ccc(F)cc2)C(=O)O)=NO1 (stereo partly specified)
IC50 (Integrin alpha-V/beta-3): 15 nM | IC50 [1]: 1300 nM

SMILES: Cn1ccc(S(=O)(=O)N[C@@H](CNC(=O)C2=NOC(CCCCN=C(N)N)C2)C(=O)O)n1 (stereo partly specified)
IC50 (Integrin alpha-V/beta-3): 96 nM | IC50 [1]: 3600 nM

SMILES: N=C(N)NCCCCC1CC(C(=O)NC[C@H](NS(=O)(=O)c2cc(Cl)sc2Cl)C(=O)O)=NO1 (stereo partly specified)
IC50 (Integrin alpha-V/beta-3): 24 nM | IC50 [1]: 1900 nM

SMILES: N=C(N)NCCC1=NOC(C(=O)NC[C@H](NC(=O)OCc2ccccc2)C(=O)O)C1 (stereo partly specified)
IC50 (Integrin alpha-V/beta-3): 2600 nM | IC50 [1]: > 100000 nM

SMILES: N=C(N)NCCCCCC1=NOC(C(=O)NC[C@H](NC(=O)OCc2ccccc2)C(=O)O)C1 (stereo partly specified)
IC50 (Integrin alpha-V/beta-3): 710 nM | IC50 [1]: 13000 nM

SMILES: N=C(N)NCCCCC1CC(C(=O)NC[C@H](NS(=O)(=O)c2cccs2)C(=O)O)=NO1 (stereo partly specified)
IC50 (Integrin alpha-V/beta-3): 23 nM | IC50 [1]: 360 nM

SMILES: N=C(N)NCCCCC1=NOC(CC(=O)NC[C@H](NC(=O)OCc2ccccc2)C(=O)O)C1 (stereo partly specified)
IC50 (Integrin alpha-V/beta-3): 180 nM | IC50 [1]: 800 nM

SMILES: N=C(N)NCC1CC(CCC(=O)NC[C@H](NC(=O)OCc2ccccc2)C(=O)O)=NO1 (stereo partly specified)
IC50 (Integrin alpha-V/beta-3): 310 nM | IC50 [1]: > 100000 nM

SMILES: N=C(N)NCCCCC1=NOC(CCC(=O)NC[C@H](NC(=O)OCc2ccccc2)C(=O)O)C1 (stereo partly specified)
IC50 (Integrin alpha-V/beta-3): 300 nM | IC50 [1]: 3600 nM

SMILES: N=C(N)NCCC1=NOC(CC(=O)NC[C@H](NC(=O)OCc2ccccc2)C(=O)O)C1 (stereo partly specified)
IC50 (Integrin alpha-V/beta-3): 900 nM | IC50 [1]: 12000 nM

SMILES: N=C(N)NCCCCC1CC(C(=O)NC[C@H](NS(=O)(=O)c2ccccc2)C(=O)O)=NO1 (stereo partly specified)
IC50 (Integrin alpha-V/beta-3): 11 nM | IC50 [1]: 780 nM

SMILES: Cc1cc(C)c(S(=O)(=O)N[C@@H](CNC(=O)C2=NOC(CCCCN=C(N)N)C2)C(=O)O)c(C)c1 (stereo partly specified)
IC50 (Integrin alpha-V/beta-3): 0.7 nM | IC50 [1]: 340 nM

SMILES: Cc1cn(C)[n+](Cl)c1S(=O)(=O)N[C@@H](CNC(=O)C1=NOC(CCCCN=C(N)N)C1)C(=O)[O-] (stereo partly specified)
IC50 (Integrin alpha-V/beta-3): 2 nM | IC50 [1]: 220 nM

SMILES: CC(C)(C)c1ccc(S(=O)(=O)N[C@@H](CNC(=O)C2=NOC(CCCCNC(=N)N)C2)C(=O)O)cc1 (stereo partly specified)
IC50 (Integrin alpha-V/beta-3): 36 nM | IC50 [1]: 47000 nM

SMILES: N=C(N)NCCCCC1CC(C(=O)NC[C@H](NS(=O)(=O)c2cccc3ccccc23)C(=O)O)=NO1 (stereo partly specified)
IC50 (Integrin alpha-V/beta-3): 16 nM | IC50 [1]: 3500 nM

SMILES: N=C(N)NCCC1CC(C(=O)NC[C@H](NC(=O)OCc2ccccc2)C(=O)O)=NO1 (stereo partly specified)
IC50 (Integrin alpha-V/beta-3): 66 nM

SMILES: N=C(N)NCCCC1=NOC(CC(=O)NC[C@H](NC(=O)OCc2ccccc2)C(=O)O)C1 (stereo partly specified)
IC50 (Integrin alpha-V/beta-3): 72 nM | IC50 [1]: 12000 nM

SMILES: N=C(N)NCCC1=NOC(CCC(=O)NC[C@H](NC(=O)OCc2ccccc2)C(=O)O)C1 (stereo partly specified)
IC50 (Integrin alpha-V/beta-3): 480 nM | IC50 [1]: 23000 nM

SMILES: N=C(N)NCCCCC1CC(C(=O)NC[C@H](NS(=O)(=O)c2ccc(Cl)cc2)C(=O)O)=NO1 (stereo partly specified)
IC50 (Integrin alpha-V/beta-3): 12 nM | IC50 [1]: 2600 nM

SMILES: N=C(N)NCCC1CC(CCC(=O)NC[C@H](NC(=O)OCc2ccccc2)C(=O)O)=NO1 (stereo partly specified)
IC50 (Integrin alpha-V/beta-3): 87 nM | IC50 [1]: 17000 nM
